# According to patent US9629834B2, “Medicinal composition for inhibiting formation and/or enlargement of cerebral aneurysm or shrinking same” (KYOTO UNIVERSITY, priority 2013, dated 2017):
# Tests used:
# Type in all cases: in vivo, SD rat
# [1] = test system: macrophages (F4/80-positive cells); experiment: Infiltration of macrophages into cerebral aneurysm formation site (F4/80 immunostaining); details: Day 1 to Day 27, Day 28, vs vehicle group, FIG. 3B
# Protocol: A rat model of cerebral aneurysm was prepared according to the method disclosed on the literature by Hashimoto et al. (Surgical Neurology 1978, Vol. 10, p. 3-8). Namely, 50 mg/kg of pentobarbital was administrated intraperitoneally to a 7-week-old male SD rat, and the left common carotid artery and the left renal artery were ligated by using 10-0 nylon thread under anesthesia (this is referred to as the surgery for inducing cerebral aneurysm). From the day after surgery (Day 1), the rat was reared with being fed a high-salt diet. During a rearing period, the rat was given free access to water. Forced oral administration of 0.03 mg/5 mL or 0.1 mg/5 mL of the suspension of Compound 1 to the cerebral aneurysm model was conducted once a day at a dose of 5 mL/kg from 1 day after surgery (Day 1) to 27 days after surgery (Day 27). 28 Days after surgery (Day 28), the treatments on the right olfactory artery/anterior cerebral artery bifurcation containing cerebral aneurysm were conducted by using similar procedures to the steps 1) to 5) of Reference Example 2, and a section of the bifurcation was prepared. […] Under the observation with a confocal microscope, the number of macrophages was counted in an area of 100 μm square centered around the cerebrovascular bifurcation where cerebral aneurysm developed. The measurement was conducted on five rats and the mean value was calculated. […]
# macrophages = experiment: Macrophages infiltrating cerebral aneurysm walls in the enlargement study; details: 0.1 mg/5 mL suspension, forced oral, once a day from Day 7; 49 days after surgery (Week 7); FIG. 10
# Protocol: Immunostaining of macrophages (F4/80-positive cells) was conducted on the prepared section as described below. As a primary antibody solution, a solution in which a rat anti-F4/80 antibody [BM8](AB16911: Abcam) was diluted with a phosphate buffer by 100 times was prepared. As a secondary antibody solution, a solution in which an alexa 488-conjugated donkey anti-rat IgG antibody (Invitrogen) was diluted with a phosphate buffer by 100 times was prepared. The section was allowed to react in the primary antibody solution at 4° C. for 16 hours, washed with a phosphate buffer, and thereafter, was allowed to react in the secondary antibody solution at room temperature for 1 hour. […] In addition, macrophages (F4/80-positive cells) stained green at the peripheries of nuclei (blue) were observed therein (in monochrome FIG. 3A, portions with a higher degree of whiteness). Under the observation with a confocal microscope, the number of macrophages was counted in an area of 100 μm square centered around the cerebrovascular bifurcation where cerebral aneurysm developed. The measurement was conducted on five rats and the mean value was calculated. […] In addition, 49 days after surgery (Week 7), the number of macrophages infiltrating cerebral aneurysm walls was counted according to the procedure of Reference Example 4 under the observation with a confocal microscope.
# [2] = test system: lymphocytes in peripheral blood; experiment: Lymphopenic action in cerebral aneurysm model; details: 0.03 mg/5 mL or 0.1 mg/5 mL suspension, 5 mL/kg, forced oral, once a day, Day 1 to Day 27; blood collected Day 28; FIG. 2
# Protocol: A rat model of cerebral aneurysm was prepared according to the method disclosed on the literature by Hashimoto et al. (Surgical Neurology 1978, Vol. 10, p. 3-8). Namely, 50 mg/kg of pentobarbital was administrated intraperitoneally to a 7-week-old male SD rat, and the left common carotid artery and the left renal artery were ligated by using 10-0 nylon thread under anesthesia (this is referred to as the surgery for inducing cerebral aneurysm). From the day after surgery (Day 1), the rat was reared with being fed a high-salt diet. During a rearing period, the rat was given free access to water. Forced oral administration of 0.03 mg/5 mL or 0.1 mg/5 mL of the suspension of Compound 1 to the cerebral aneurysm model was conducted once a day at a dose of 5 mL/kg from 1 day after surgery (Day 1) to 27 days after surgery (Day 27). It should be noted that forced oral administration of the 0.5% MC solution (0 mg/5 mL of the suspension of Compound 1) to the cerebral aneurysm model was conducted once a day at a dose of 5 mL/kg. The group of these rats was defined as a vehicle group. […] The number of lymphocytes in the collected blood was counted by using a blood test system (Advia 120, Siemens Healthcare Diagnostics) according to the manual of the system.
smiles,measurement,setting,value
"C[C@H](Oc1ccc(-c2nc(-c3ccc4[nH]cnc4c3)no2)cc1C(F)(F)F)C(F)(F)F.Cl [Compound 1, 5-{5-[3-(trifluoromethyl)-4-{[(2S)-1,1,1-trifluoropropan-2-yl]oxy}phenyl]-1,2,4-oxadiazol-3-yl}-1H-benzimidazole hydrochloride]",number of macrophages at the cerebral aneurysm formation site,[1]; 0.03 mg/kg oral once a day,decreased as compared to the number of macrophages in the vehicle group
same,number of macrophages at the cerebral aneurysm formation site,[1]; 0.1 mg/kg oral once a day,decreased as compared to the number of macrophages in the vehicle group
same,number of macrophages infiltrating cerebral aneurysm walls,macrophages,decreased the number of macrophages at the site where cerebral aneurysm was induced
same,number of lymphocytes in peripheral blood,[2],decreased the number of lymphocytes in peripheral blood in a concentration-dependent manner
